Experiments:
[1] = Solid tumour dose-escalation study: pharmacokinetics (plasma, urine); format: in vivo, human; settings: for Plasma concentration of AZD1208, Gmean: Cycle 1, Day 15
Experimental: The schedules for collection of blood and urine samples for PK analyses in each cohort in both studies are described in Supplementary Table 1. When necessary for clinical response assessment in the AML study, a bone marrow sample for PK analysis was collected at Cycle 1, Day 28.
The concentration of AZD1208 in plasma and urine was determined by Covance, on behalf of Clinical Bioanalysis Alliance at AstraZeneca R&D, using a bioanalytical method. A volume of 0.05 ml of K2EDTA human plasma sample was extracted by liquid–liquid extraction using 0.7 ml of methyl tert-butyl ether. Approximately 100 µl of the supernatant was transferred, evaporated to dryness and reconstituted with 350 µl of 1:1 methanol:water, and a 5 µl injection was made to the high-performance liquid chromatography (HPLC) column. HPLC separations were performed on a Phenomenex LUNA C18 (50 × 2 mm, 5 µm) column using a mobile phase of 0.1% formic acid in water (A) and 0.1% formic acid in acetonitrile (B) at a flow rate of 0.6 ml/min and a column temperature of 40 °C. AZD1208-D5 was used as the internal standard. Detection was performed in a Sciex API4000 mass spectrometer, in a positive electrospray ionisation mode, using multiple reaction monitoring detection (AZD1208: 380.0–>248.1; AZD1208-D5: 385.0–>253.1).

[2] = test system: p4E-BP1 S65; assay: PD: phosphorylation of 4E-BP1 at S65 by NanoPro immunoassay, AML study; format: in vivo, human
Experimental: For AZD1208 PD evaluations, bone marrow aspirates were collected (pretreatment and Cycle 1, Day 1, 2–6 h following administration of AZD1208) and peripheral blood samples were collected (pretreatment on Cycle 1, Day 1; and on-treatment at Cycle 1, Day 1 at 3, 6 and 24 h post-dose; Cycle 1, Day 14 at pre-dose, 3 and 6 h post-dose). Mononuclear cells were isolated, and protein lysates prepared, for subsequent analysis of phosphorylated BAD at S112 by MesoScale Discovery ELISA and phosphorylation of 4E-BP1 at S65 by NanoPro immunoassay [unpublished data: McEachern et al. 2018, manuscript in preparation]. Samples were considered evaluable when the baseline biomarker levels were above the background signal (as defined by buffer-only negative control samples) and within the linear range of assay. Additionally, only blood samples containing detectable blasts were considered for analysis.

[3] = test system: MYC-driven prostate cancer models; set-up: method as in PMID 25505253; settings: cited from earlier work

N[C@@H]1CCCN(c2c(/C=C3\SC(=O)NC3=O)cccc2-c2ccccc2)C1 [AZD1208]
Plasma concentration of AZD1208, Gmean ([1]; 0.5 h post-dose, 120 mg): n=3 1109 ng ml | Plasma concentration of AZD1208, Gmean ([1]; 0.5 h post-dose, 240 mg): n=6 881.5 ng ml | Plasma concentration of AZD1208, Gmean ([1]; 0.5 h post-dose, 360 mg): n=3 884.4 ng ml | Plasma concentration of AZD1208, Gmean ([1]; 0.5 h post-dose, 540 mg): n=3 774 ng ml | Plasma concentration of AZD1208, Gmean ([1]; 0.5 h post-dose, 700 mg): n=4 1042 ng ml | Plasma concentration of AZD1208, Gmean ([1]; 0.5 h post-dose, 800 mg): n=2 1420 ng ml | Plasma concentration of AZD1208, Gmean ([1]; 1 h post-dose, 120 mg): n=3 1319 ng ml | Plasma concentration of AZD1208, Gmean ([1]; 1 h post-dose, 240 mg): n=6 1316 ng ml | Plasma concentration of AZD1208, Gmean ([1]; 1 h post-dose, 360 mg): n=3 1983 ng ml | Plasma concentration of AZD1208, Gmean ([1]; 1 h post-dose, 540 mg): n=3 1691 ng ml | Plasma concentration of AZD1208, Gmean ([1]; 1 h post-dose, 700 mg): n=4 1320 ng ml | Plasma concentration of AZD1208, Gmean ([1]; 1 h post-dose, 800 mg): n=2 1783 ng ml | Plasma concentration of AZD1208, Gmean ([1]; 1.5 h post-dose, 120 mg): n=3 1367 ng ml | Plasma concentration of AZD1208, Gmean ([1]; 1.5 h post-dose, 240 mg): n=6 1843 ng ml | Plasma concentration of AZD1208, Gmean ([1]; 1.5 h post-dose, 360 mg): n=3 3212 ng ml | Plasma concentration of AZD1208, Gmean ([1]; 1.5 h post-dose, 540 mg): n=3 3302 ng ml | Plasma concentration of AZD1208, Gmean ([1]; 2 h post-dose, 120 mg): n=3 1681 ng ml | Plasma concentration of AZD1208, Gmean ([1]; 2 h post-dose, 240 mg): n=6 2340 ng ml | Plasma concentration of AZD1208, Gmean ([1]; 2 h post-dose, 360 mg): n=3 3106 ng ml | Plasma concentration of AZD1208, Gmean ([1]; 2 h post-dose, 540 mg): n=3 3646 ng ml | Plasma concentration of AZD1208, Gmean ([1]; 2 h post-dose, 700 mg): n=4 2802 ng ml | Plasma concentration of AZD1208, Gmean ([1]; 2 h post-dose, 800 mg): n=2 1705 ng ml | Plasma concentration of AZD1208, Gmean ([1]; 4 h post-dose, 120 mg): n=3 1649 ng ml | Plasma concentration of AZD1208, Gmean ([1]; 4 h post-dose, 240 mg): n=6 1899 ng ml | Plasma concentration of AZD1208, Gmean ([1]; 4 h post-dose, 360 mg): n=3 2483 ng ml | Plasma concentration of AZD1208, Gmean ([1]; 4 h post-dose, 540 mg): n=3 2508 ng ml | Plasma concentration of AZD1208, Gmean ([1]; 4 h post-dose, 700 mg): n=4 2882 ng ml | Plasma concentration of AZD1208, Gmean ([1]; 4 h post-dose, 800 mg): n=2 2509 ng ml | Plasma concentration of AZD1208, Gmean ([1]; 6 h post-dose, 120 mg): n=3 1657 ng ml | Plasma concentration of AZD1208, Gmean ([1]; 6 h post-dose, 240 mg): n=6 1637 ng ml | Plasma concentration of AZD1208, Gmean ([1]; 6 h post-dose, 360 mg): n=2 2130 ng ml | Plasma concentration of AZD1208, Gmean ([1]; 6 h post-dose, 540 mg): n=3 2023 ng ml | Plasma concentration of AZD1208, Gmean ([1]; 6 h post-dose, 700 mg): n=4 3291 ng ml | Plasma concentration of AZD1208, Gmean ([1]; 6 h post-dose, 800 mg): n=2 3401 ng ml | Plasma concentration of AZD1208, Gmean ([1]; 8 h post-dose, 120 mg): n=3 1262 ng ml | Plasma concentration of AZD1208, Gmean ([1]; 8 h post-dose, 240 mg): n=6 1466 ng ml | Plasma concentration of AZD1208, Gmean ([1]; 8 h post-dose, 360 mg): n=3 1813 ng ml | Plasma concentration of AZD1208, Gmean ([1]; 8 h post-dose, 540 mg): n=3 1739 ng ml | Plasma concentration of AZD1208, Gmean ([1]; pre-dose, 120 mg): n=3 903.1 ng ml | Plasma concentration of AZD1208, Gmean ([1]; pre-dose, 240 mg): n=6 560.9 ng ml | Plasma concentration of AZD1208, Gmean ([1]; pre-dose, 360 mg): n=3 602.5 ng ml | Plasma concentration of AZD1208, Gmean ([1]; pre-dose, 540 mg): n=4 266.6 ng ml | Plasma concentration of AZD1208, Gmean ([1]; pre-dose, 700 mg): n=3 819 ng ml | Plasma concentration of AZD1208, Gmean ([1]; pre-dose, 800 mg): n=2 1099 ng ml | Half-life, max ([1]; following a single dose): 103 h | Half-life, min ([1]; following a single dose): 18.9 h | Mean half-life ([1]; following a single dose): 37.2 h | Median Tmax ([1]; multiple dosing): ~ 4 h | Tmax range ([1]; multiple dosing): 1.5 to 6 h | AZD1208 dose observed in urine ([1]; multiple dosing, Day 15): 0.5% | Renal clearance ([1]; single and multiple dosing): negligible | AZD1208 dose eliminated in urine ([1]; single dose, over 72 h): ~ 1% | Median Tmax ([1]; single dosing): ~ 5 h | Tmax range ([1]; single dosing): 1.5 to 25 h | Patients with reductions in p4E-BP1 S65 ([2]; evaluable bone marrow samples, single dose): 3/11 | Patients with decreases in p4E-BP1 S65 ([2]; peripheral blood samples): 4/7 | Tumour growth [3]: significantly decreased tumour growth
